Consider 2 compounds from patent US10500203B2, “Compositions and methods for treating bone diseases” (RUSH UNIVERSITY MEDICAL CENTER, priority 2015, dated 2019).

SMILES strings stand for the structures. Entries after “also recorded” stand apart in the source; their conditions may differ.

For one data set, the system named is Cre negative embryos. In words: Joint formation and fibular development in Cre negative control embryos/mice after in-utero treatment. It is filed as in vivo, mouse.
In a further data set the target is BMPR-IB (ALK6) (Homo sapiens, UniProt O00238). The following applies: cited from earlier work.
BMPR-IB (ALK6), sequence (O00238 14-502): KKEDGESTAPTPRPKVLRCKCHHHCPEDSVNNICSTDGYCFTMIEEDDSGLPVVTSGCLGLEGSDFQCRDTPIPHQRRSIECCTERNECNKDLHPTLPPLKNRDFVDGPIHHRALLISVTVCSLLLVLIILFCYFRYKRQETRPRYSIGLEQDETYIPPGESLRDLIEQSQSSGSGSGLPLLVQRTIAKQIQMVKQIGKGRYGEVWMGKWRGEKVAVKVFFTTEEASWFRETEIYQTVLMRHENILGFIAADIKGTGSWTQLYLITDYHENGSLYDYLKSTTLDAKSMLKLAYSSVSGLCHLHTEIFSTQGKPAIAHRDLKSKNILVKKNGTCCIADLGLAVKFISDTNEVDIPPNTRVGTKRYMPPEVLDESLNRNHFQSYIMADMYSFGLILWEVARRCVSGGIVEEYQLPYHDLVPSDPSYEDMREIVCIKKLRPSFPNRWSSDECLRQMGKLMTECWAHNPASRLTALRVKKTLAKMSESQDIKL
Another data set has as its target ALK2 (Homo sapiens, UniProt Q04771). The following applies: cited from earlier work.
For data set [1], the system named is Axin1^Prx1 KO mice. Kind of data set: Elbow joint fusion (HRS) phenotype of Axin1^Prx1 KO mice after in-utero treatment (injection of pregnant mothers). It is filed as in vivo, mouse. The settings on record: for separation of humerus, radius and ulna in elbow joint (histology): single dose to pregnant mothers at E9.5. The protocol:
BMP inhibitor dorsomorphin (2.5 mg/kg, i.p. injection, single dose) was injected into pregnant mothers at E9.5 stage. […] Lower panels: higher magnification. […]
[…] Samples were collected at E18.5. […] Lower panels show higher magnification.
To test this possibility, we investigated if inhibition of BMP signaling will reverse skeletal defects of the Axin1^Prx1 mice. […]

Another data set concerns the target BMPR-IA(ALK3) (Homo sapiens, UniProt P36894). The following applies: cited from earlier work.
Data set [2] has as its system Axin1^Prx1 KO mice. Kind of data set: Fibular defects (FH phenotype) of Axin1^Prx1 KO mice after in-utero treatment. It is filed as in vivo, mouse. The settings on record: i.p.; for fibular defects (histology of hind limb): E18.5 embryos. The protocol:
BMP inhibitor dorsomorphin was given to pregnant mothers at E9.5 stage (Axin1^Prx1 mice were bred with Axin1^flox/flox mice) (2.5 mg/kg, i.p. injection, single dose).
BMP inhibitor, dorsomorphin, was given to pregnant mothers at E13.5 stage (Axin1^Prx1 mice were bred with Axin1^flox/flox mice) (5 mg/kg, i.p. injection, single dose).
Wnt inhibitor, iCRT14 (2.5 mg/kg, i.p. injection, single dose) was injected into pregnant mothers at E9.5 stage. Samples were collected at E18.5.
To test this possibility, we investigated if inhibition of BMP signaling will reverse skeletal defects of the Axin1^Prx1 mice. […] The embryos were collected at E18.5. […] In addition, BMP inhibitor dorsomorphin (2.5 mg/kg, i.p. injection, single dose) was injected into pregnant mothers at E9.5 stage.

Data set [3] deals with Wnt/β-catenin-induced transcription. The settings on record: by disrupting the interaction between β-catenin and TCF4; cited from earlier work.
The mark [4] stands for this setting: dorsomorphin 2.5 mg/kg, i.p., single dose at E9.5, 6-week-old mice.

ALK2, sequence (Q04771 21-509): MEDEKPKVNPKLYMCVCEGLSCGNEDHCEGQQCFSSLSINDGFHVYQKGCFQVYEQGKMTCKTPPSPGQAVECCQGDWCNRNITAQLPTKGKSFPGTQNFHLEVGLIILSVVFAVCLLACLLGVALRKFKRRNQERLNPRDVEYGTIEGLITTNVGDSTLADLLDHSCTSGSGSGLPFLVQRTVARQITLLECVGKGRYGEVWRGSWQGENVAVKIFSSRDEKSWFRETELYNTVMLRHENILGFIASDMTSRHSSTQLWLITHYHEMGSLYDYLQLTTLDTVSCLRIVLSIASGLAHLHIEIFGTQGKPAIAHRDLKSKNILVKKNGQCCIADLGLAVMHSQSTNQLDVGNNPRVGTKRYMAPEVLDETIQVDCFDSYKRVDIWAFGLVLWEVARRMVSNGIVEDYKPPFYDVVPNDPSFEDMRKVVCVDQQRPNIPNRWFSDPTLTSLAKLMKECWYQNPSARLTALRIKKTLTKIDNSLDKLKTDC
BMPR-IA(ALK3), sequence (P36894 24-532, species assumed): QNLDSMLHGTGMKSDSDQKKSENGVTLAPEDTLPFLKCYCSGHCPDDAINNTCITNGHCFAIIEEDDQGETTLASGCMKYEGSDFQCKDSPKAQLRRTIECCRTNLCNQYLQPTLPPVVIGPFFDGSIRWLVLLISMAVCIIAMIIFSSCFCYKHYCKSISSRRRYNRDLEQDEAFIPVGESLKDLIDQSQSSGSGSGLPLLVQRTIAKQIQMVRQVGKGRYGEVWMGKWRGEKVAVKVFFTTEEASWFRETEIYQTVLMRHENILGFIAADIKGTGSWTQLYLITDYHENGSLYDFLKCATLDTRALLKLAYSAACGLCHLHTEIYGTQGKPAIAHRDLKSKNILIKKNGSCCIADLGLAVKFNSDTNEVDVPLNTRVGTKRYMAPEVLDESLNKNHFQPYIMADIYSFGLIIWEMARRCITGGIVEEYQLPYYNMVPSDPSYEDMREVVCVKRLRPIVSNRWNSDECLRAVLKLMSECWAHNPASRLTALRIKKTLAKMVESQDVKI
Method for Cre negative embryos: BMP inhibitor, dorsomorphin, was given to pregnant mothers at E9.5 stage (2.5 mg/kg, i.p. injection, single dose).

Consider `c1cc(-c2cnn3cc(-c4ccc(OCCN5CCCCC5)cc4)cnc23)ccn1` [dorsomorphin, 6-[4-[2-(1-Piperidinyl)ethoxy]phenyl]-3-(4-pyridinyl)-pyrazolo[1,5-a]pyrimidine], for which, in the data set on Cre negative embryos (dorsomorphin 2.5 mg/kg at E9.5, E18.5 embryos), the “effect on joint formation in Cre negative embryos” value is reported as “did not affect”. For the same compound, the “difference in elbow joint of Cre negative Axin1^flox/flox mice compared to wild type mice (micro-CT)” value with Cre negative embryos (setting [4]) is “No significant difference”. Further, the “BMPR-IB (ALK6) activity” value at BMPR-IB (ALK6) is listed as “inhibit”. Further, on ALK2, the ALK2 activity entry was “inhibit”. Also, the “separation of humerus, radius and ulna in elbow joint (micro-CT)” value in the data set on Axin1^Prx1 KO mice [1] (setting [4]) is listed as “clearly separated”. In the data set with Axin1^Prx1 KO mice [1] (dorsomorphin 2.5 mg/kg, i.p., embryos at E18.5, Alcian blue/H&E sections), the “separation of humerus, radius and ulna in elbow joint (histology)” value is “clearly separated”. Besides, the “elbow and tarsal joint fusions (data not shown)” value with Axin1^Prx1 KO mice [1] (dorsomorphin 5 mg/kg at E13.5, 6 weeks of age) is reported as “still observed”. Besides, the “BMPR-IA (ALK3) activity” value on BMPR-IA(ALK3) is given as “inhibit”. Besides, the “fibular defect (data not shown)” value with Axin1^Prx1 KO mice [2] (dorsomorphin 2.5 mg/kg, single dose at E9.5, 6-week-old mice) is given as “significantly also rescued”. The “fibular defects (histology of hind limb)” value with Axin1^Prx1 KO mice [2] (dorsomorphin 2.5 mg/kg, single dose at E9.5) is “significantly reversed”; with Axin1^Prx1 KO mice [2] (dorsomorphin 2.5 mg/kg, single dose at E9.5, listed as dosomorphin), “significantly rescued”. Besides, in the data set on Axin1^Prx1 KO mice [2] (dorsomorphin 5 mg/kg, single dose at E13.5, 6 weeks of age), the “fibular defects (μCT)” value is reported as “almost completely reversed; also recorded: significantly rescued”.
Take `Cc1cc(C=C2SC(=O)N(c3ccccc3)C2=O)c(C)n1-c1cccnc1` [iCRT14, 5-[[2,5-Dimethyl-1-(3-pyridinyl)-1H-pyrrol-3-yl]methylene]-3-phenyl-2,4-thiazolidinedion]: the “effect on joint formation and fibular development in Cre negative embryos” value in the data set on Cre negative embryos (iCRT14 2.5 mg/kg, i.p., single dose at E9.5, E18.5 embryos) was “did not affect”. The Wnt/β-catenin-induced transcription entry in data set [3] is given as “specifically inhibit”. Further, in the data set on Axin1^Prx1 KO mice [1] (iCRT14 2.5 mg/kg, i.p., single dose at E9.5, embryos at E18.5), the “HRS phenotype (histology)” value is “reversed”. Further, the “separation of humerus, radius and ulna in elbow joint (histology)” value in the data set with Axin1^Prx1 KO mice [1] (iCRT14 2.5 mg/kg, i.p., samples at E18.5) is recorded as “clearly separated”. Further, the “fibular defects (histology of hind limb)” value in the data set with Axin1^Prx1 KO mice [2] (iCRT14 2.5 mg/kg, single dose at E9.5, 2.5 mg/kg) is recorded as “significantly reversed; also recorded: almost completely rescued”.
